{"source": "patent US20260285850A1", "about": "“SUBSTITUTED OXAZOLIDINONES AND IMIDAZOLINONES AS HERBICIDES” (FMC CORPORATION, priority 2023, published 2026)", "type_in_all_cases": "in vivo", "key": {"soybean (Glycine max) [1]": {"system": "soybean (Glycine max)", "assay": "Test A postemergence application, visual injury rating 0-100", "settings": "10 days", "description": "(§1) Seeds of plant species selected from barnyardgrass (Echinochloa crus-galli), blackgrass (Alopecurus myosuroides), corn (Zea mays), foxtail, giant (giant foxtail, Setaria faberi), green foxtail (Setaria viridis), goosegrass (Eleusine indica), kochia (Bassia scoparia), oat, wild (wild oat, Avena fatua), palmer (palmer amaranth, palmer pigweed, Amaranthus palmeri), ragweed (common ragweed, Ambrosia artemisiifolia), ryegrass, Italian (italian ryegrass, Lolium multiflorum), soybean (Glycine max) and wheat (Triticum aestivum) were planted into a blend of loam soil and sand and treated preemergence with a directed soil spray using test chemicals formulated in a non-phytotoxic solvent mixture which included a surfactant.\n(§2) At the same time, plants selected from these crops and weed species and also galium (catchweed bedstraw, Galium aparine) and horseweed (Erigeron canadensis) were planted in pots containing the same blend of loam soil and sand and treated with postemergence applications of test chemicals formulated in the same manner. Plants ranged in height from 2 to 10 cm and were in the one- to two-leaf stage for the postemergence treatment. Treated plants and untreated controls were maintained in a greenhouse for 10 days, after which time all treated plants were compared to untreated controls and visually evaluated for injury. Plant response ratings, summarized in Table A, are based on a 0 to 100 scale where 0 is no effect and 100 is complete control. A dash (-) response means no test result."}, "[2]": {"system": "horseweed (Erigeron canadensis)", "assay": "Test A postemergence application, visual injury rating 0-100", "settings": "10 days", "description": "as §1, §2"}, "[3]": {"system": "ryegrass, Italian (italian ryegrass, Lolium multiflorum)", "assay": "Test A postemergence application, visual injury rating 0-100", "settings": "10 days", "description": "as §1, §2"}, "[4]": {"system": "ragweed (common ragweed, Ambrosia artemisiifolia)", "assay": "Test A postemergence application, visual injury rating 0-100", "settings": "10 days", "description": "as §1, §2"}, "[5]": {"system": "wheat (Triticum aestivum)", "assay": "Test A postemergence application, visual injury rating 0-100", "settings": "10 days", "description": "as §1, §2"}, "[6]": {"system": "oat, wild (wild oat, Avena fatua)", "assay": "Test A postemergence application, visual injury rating 0-100", "settings": "10 days", "description": "as §1, §2"}, "[7]": {"system": "green foxtail (Setaria viridis)", "assay": "Test A postemergence application, visual injury rating 0-100", "settings": "10 days", "description": "as §1, §2"}, "[8]": {"system": "blackgrass (Alopecurus myosuroides)", "assay": "Test A postemergence application, visual injury rating 0-100", "settings": "10 days", "description": "as §1, §2"}, "kochia (Bassia scoparia) [9]": {"system": "kochia (Bassia scoparia)", "assay": "Test A postemergence application, visual injury rating 0-100", "settings": "10 days", "description": "as §1, §2"}, "[10]": {"system": "palmer (palmer amaranth, palmer pigweed, Amaranthus palmeri)", "assay": "Test A postemergence application, visual injury rating 0-100", "settings": "10 days", "description": "as §1, §2"}, "[11]": {"system": "barnyardgrass (Echinochloa crus-galli)", "assay": "Test A postemergence application, visual injury rating 0-100", "settings": "10 days", "description": "as §1, §2"}, "corn (Zea mays) [12]": {"system": "corn (Zea mays)", "assay": "Test A postemergence application, visual injury rating 0-100", "settings": "10 days", "description": "as §1, §2"}, "rice (Oryza sativa)": {"system": "rice (Oryza sativa)", "assay": "Test B flooded paddy test, visual plant response rating 0-100", "settings": "250 g ai/ha, Flood, applied to paddy water, evaluated after 13 days", "procedure": "(§3) Plant species in the flooded paddy test selected from barnyardgrass (Echinochloa crusgalli), ducksalad (Heteranthera limosa), rice (Oryza sativa), and sedge, umbrella (small-flower umbrella sedge, Cyperus difformis) were grown to the 2-leaf stage for testing. At time of treatment, test pots were flooded to 3 cm above the soil surface, treated by application of test compounds directly to the paddy water, and then maintained at that water depth for the duration of the test. Treated plants and controls were maintained in a greenhouse for 13 days, after which time all species were compared to controls and visually evaluated. […] A dash (-) response means no test result."}, "[13]": {"system": "barnyardgrass (Echinochloa crusgalli)", "assay": "Test B flooded paddy test, visual plant response rating 0-100", "settings": "250 g ai/ha, Flood, applied to paddy water, evaluated after 13 days", "procedure": "as §3"}, "[14]": {"system": "sedge, umbrella (small-flower umbrella sedge, Cyperus difformis)", "assay": "Test B flooded paddy test, visual plant response rating 0-100", "settings": "250 g ai/ha, Flood, applied to paddy water, evaluated after 13 days", "procedure": "as §3"}, "[15]": {"system": "ducksalad (Heteranthera limosa)", "assay": "Test B flooded paddy test, visual plant response rating 0-100", "settings": "250 g ai/ha, Flood, applied to paddy water, evaluated after 13 days", "procedure": "as §3"}, "soybean (Glycine max) [16]": {"system": "soybean (Glycine max)", "assay": "Test A preemergence soil spray, visual injury rating 0-100", "settings": "10 days, 0 = no effect, 100 = complete control", "description": "as §1, §2"}, "[17]": {"system": "ryegrass, Italian (italian ryegrass, Lolium multiflorum)", "assay": "Test A preemergence soil spray, visual injury rating 0-100", "settings": "10 days, 0 = no effect, 100 = complete control", "description": "as §1, §2"}, "[18]": {"system": "ragweed (common ragweed, Ambrosia artemisiifolia)", "assay": "Test A preemergence soil spray, visual injury rating 0-100", "settings": "10 days, 0 = no effect, 100 = complete control", "description": "as §1, §2"}, "[19]": {"system": "wheat (Triticum aestivum)", "assay": "Test A preemergence soil spray, visual injury rating 0-100", "settings": "10 days, 0 = no effect, 100 = complete control", "description": "as §1, §2"}, "[20]": {"system": "oat, wild (wild oat, Avena fatua)", "assay": "Test A preemergence soil spray, visual injury rating 0-100", "settings": "10 days, 0 = no effect, 100 = complete control", "description": "as §1, §2"}, "[21]": {"system": "green foxtail (Setaria viridis)", "assay": "Test A preemergence soil spray, visual injury rating 0-100", "settings": "10 days, 0 = no effect, 100 = complete control", "description": "as §1, §2"}, "[22]": {"system": "blackgrass (Alopecurus myosuroides)", "assay": "Test A preemergence soil spray, visual injury rating 0-100", "settings": "10 days, 0 = no effect, 100 = complete control", "description": "as §1, §2"}, "kochia (Bassia scoparia) [23]": {"system": "kochia (Bassia scoparia)", "assay": "Test A preemergence soil spray, visual injury rating 0-100", "settings": "10 days, 0 = no effect, 100 = complete control", "description": "as §1, §2"}, "[24]": {"system": "palmer (palmer amaranth, palmer pigweed, Amaranthus palmeri)", "assay": "Test A preemergence soil spray, visual injury rating 0-100", "settings": "10 days, 0 = no effect, 100 = complete control", "description": "as §1, §2"}, "[25]": {"system": "barnyardgrass (Echinochloa crus-galli)", "assay": "Test A preemergence soil spray, visual injury rating 0-100", "settings": "10 days, 0 = no effect, 100 = complete control", "description": "as §1, §2"}, "corn (Zea mays) [26]": {"system": "corn (Zea mays)", "assay": "Test A preemergence soil spray, visual injury rating 0-100", "settings": "10 days, 0 = no effect, 100 = complete control", "description": "as §1, §2"}, "[27]": {"settings": "31 g ai/ha, postemergence, 0 = no effect, 100 = complete control"}, "[28]": {"settings": "Postemergence, 125 g ai/ha, 0 is no effect, 100 is complete control"}}, "data": [{"compound": "CNC(=O)C1CC(NC(=O)C2(C)CN(c3cc(F)cc(F)c3)C(=O)O2)CO1", "note": "(centres unmarked) [Compound 8]", "values": [{"measurement": "Soybean plant response rating (0-100)", "setting": "soybean (Glycine max) [1]; [27]", "value": 0}, {"measurement": "Soybean plant response rating (0 to 100 scale)", "setting": "soybean (Glycine max) [1]; [28]", "value": 0}, {"measurement": "Horseweed plant response rating (0-100)", "setting": "[2]; [27]", "value": 30}, {"measurement": "Horseweed plant response rating (0 to 100 scale)", "setting": "[2]; [28]", "value": 10}, {"measurement": "Ryegrass, Italian plant response rating (0-100)", "setting": "[3]; [27]", "value": 0}, {"measurement": "Ryegrass, Italian plant response rating (0 to 100 scale)", "setting": "[3]; [28]", "value": 0}, {"measurement": "Ragweed plant response rating (0-100)", "setting": "[4]; [27]", "value": 0}, {"measurement": "Ragweed plant response rating (0 to 100 scale)", "setting": "[4]; [28]", "value": 0}, {"measurement": "Wheat plant response rating (0-100)", "setting": "[5]; [27]", "value": 0}, {"measurement": "Wheat plant response rating (0 to 100 scale)", "setting": "[5]; [28]", "value": 20}, {"measurement": "Oat, Wild plant response rating (0-100)", "setting": "[6]; [27]", "value": 0}, {"measurement": "Oat, Wild plant response rating (0 to 100 scale)", "setting": "[6]; [28]", "value": 0}, {"measurement": "Foxtail, Green plant response rating (0-100)", "setting": "[7]; [27]", "value": 0}, {"measurement": "Foxtail, Green plant response rating (0 to 100 scale)", "setting": "[7]; [28]", "value": 0}, {"measurement": "Blackgrass plant response rating (0-100)", "setting": "[8]; [27]", "value": 0}, {"measurement": "Blackgrass plant response rating (0 to 100 scale)", "setting": "[8]; [28]", "value": 90}, {"measurement": "Kochia plant response rating (0-100)", "setting": "kochia (Bassia scoparia) [9]; [27]", "value": 0}, {"measurement": "Kochia plant response rating (0 to 100 scale)", "setting": "kochia (Bassia scoparia) [9]; [28]", "value": 20}, {"measurement": "Amaranth, Palmer plant response rating (0-100)", "setting": "[10]; [27]", "value": 0}, {"measurement": "Amaranth, Palmer / Pigweed, Palmer plant response rating (0 to 100 scale)", "setting": "[10]; [28]", "value": 0}, {"measurement": "Barnyardgrass plant response rating (0-100)", "setting": "[11]; [27]", "value": 0}, {"measurement": "Barnyardgrass plant response rating (0 to 100 scale)", "setting": "[11]; [28]", "value": 0}, {"measurement": "Corn plant response rating (0-100)", "setting": "corn (Zea mays) [12]; [27]", "value": 0}, {"measurement": "Corn plant response rating (0 to 100 scale)", "setting": "corn (Zea mays) [12]; [28]", "value": 0}, {"measurement": "Plant response rating, Rice (0 to 100 scale, 0 is no effect and 100 is complete control)", "setting": "rice (Oryza sativa)", "value": 0}, {"measurement": "Plant response rating, Barnyardgrass (0 to 100 scale, 0 is no effect and 100 is complete control)", "setting": "[13]", "value": 0}, {"measurement": "Plant response rating, Sedge, Umbrella (0 to 100 scale, 0 is no effect and 100 is complete control)", "setting": "[14]", "value": 0}, {"measurement": "Plant response rating, Ducksalad (0 to 100 scale, 0 is no effect and 100 is complete control)", "setting": "[15]", "value": 0}, {"measurement": "Soybean plant response rating (0-100)", "setting": "soybean (Glycine max) [16]; 31 g ai/ha", "value": 0}, {"measurement": "Soybean plant response rating (0 to 100 scale)", "setting": "soybean (Glycine max) [16]; 125 g ai/ha", "value": 0}, {"measurement": "Ryegrass, Italian plant response rating (0-100)", "setting": "[17]; 31 g ai/ha", "value": 0}, {"measurement": "Ryegrass, Italian plant response rating (0 to 100 scale)", "setting": "[17]; 125 g ai/ha", "value": 60}, {"measurement": "Ragweed plant response rating (0-100)", "setting": "[18]; 31 g ai/ha", "value": 60}, {"measurement": "Ragweed plant response rating (0 to 100 scale)", "setting": "[18]; 125 g ai/ha", "value": 0}, {"measurement": "Wheat plant response rating (0-100)", "setting": "[19]; 31 g ai/ha", "value": 0}, {"measurement": "Wheat plant response rating (0 to 100 scale)", "setting": "[19]; 125 g ai/ha", "value": 80}, {"measurement": "Oat, Wild plant response rating (0-100)", "setting": "[20]; 31 g ai/ha", "value": 0}, {"measurement": "Oat, Wild plant response rating (0 to 100 scale)", "setting": "[20]; 125 g ai/ha", "value": 20}, {"measurement": "Foxtail, Green plant response rating (0-100)", "setting": "[21]; 31 g ai/ha", "value": 0}, {"measurement": "Foxtail, Green plant response rating (0 to 100 scale)", "setting": "[21]; 125 g ai/ha", "value": 40}, {"measurement": "Blackgrass plant response rating (0-100)", "setting": "[22]; 31 g ai/ha", "value": 0}, {"measurement": "Blackgrass plant response rating (0 to 100 scale)", "setting": "[22]; 125 g ai/ha", "value": 50}, {"measurement": "Kochia plant response rating (0-100)", "setting": "kochia (Bassia scoparia) [23]; 31 g ai/ha", "value": 0}, {"measurement": "Kochia plant response rating (0 to 100 scale)", "setting": "kochia (Bassia scoparia) [23]; 125 g ai/ha", "value": 70}, {"measurement": "Amaranth, Palmer plant response rating (0-100)", "setting": "[24]; 31 g ai/ha", "value": 0}, {"measurement": "Amaranth, Palmer plant response rating (0 to 100 scale)", "setting": "[24]; 125 g ai/ha", "value": 0}, {"measurement": "Barnyardgrass plant response rating (0-100)", "setting": "[25]; 31 g ai/ha", "value": 0}, {"measurement": "Barnyardgrass plant response rating (0 to 100 scale)", "setting": "[25]; 125 g ai/ha", "value": 10}, {"measurement": "Corn plant response rating (0-100)", "setting": "corn (Zea mays) [26]; 31 g ai/ha", "value": 0}, {"measurement": "Corn plant response rating (0 to 100 scale)", "setting": "corn (Zea mays) [26]; 125 g ai/ha", "value": 0}]}]}
